Assay results as given in the OPERA property sets (Mansouri et al. 2018).

In the case of `COC(=O)c1cc(S(=O)c2ccc(C(F)(F)F)cc2Cl)ccc1[N+](=O)[O-]` (stereo unspecified), the logP is reported as 3.65. `CCOC(=O)C(C)Oc1cc(Oc2ccc(C(F)(F)F)cc2Cl)ccc1[N+](=O)[O-]` (stereo unspecified) showed a logP of 4.53. `O=C(Oc1ccc(Cl)cc1Cl)N1CCCC1` gave a logP of 3.94. For `O=C(Oc1ccccc1Cl)N1CCCC1`, the logP was 3.13. Work on `COC(=O)c1cc(S(=O)(=O)c2ccc(C(F)(F)F)cc2Cl)ccc1[N+](=O)[O-]` yielded a logP of 3.57. `CCOC(=O)C(C)OC(=O)c1cc(Oc2ccc(C(F)(F)F)cc2Cl)ccc1[N+](=O)[O-]` (stereo unspecified) gave a logP of 4.81. `CC(C)OC(=O)c1cc(OC(=O)N2CCCC2)c(Cl)cc1Cl` showed a logP of 4.67. Molecule `C#CCOc1cc(OC(=O)N2CCCCC2)c(Cl)cc1Cl` has a logP of 4.25. `O=C(Oc1cc(O)c(Cl)cc1Cl)N1CCCC1` gave a logP of 2.98. Work on `CCOc1cc(Oc2ccc(C(F)(F)F)cc2Cl)ccc1[N+](=O)[O-]` yielded a logP of 4.73. In the case of `C#CCOC1=Nc2cc(OC(=O)N3CCCC3)c(Cl)cc2OC1`, the logP is reported as 2.93. With `COC(=O)c1cc(OC(=O)N2CCCC2)c(Cl)cc1Cl` the logP was 3.95. In the case of `O=[N+]([O-])c1ccc(Oc2ccccc2)cc1`, the logP is reported as 3.92. `C#CCOc1cc(OC(=O)N2CCCC2)c(Cl)cc1Cl` gave a logP of 3.82. With `O=[N+]([O-])c1ccc(Oc2ccc(C(F)(F)F)cc2Cl)cc1Oc1ccoc1` the logP was 4.33. `COC(=O)c1cc(Oc2ccc(C(F)(F)F)cc2Cl)ccc1Cl` gave a logP of 5.04. `CC(C)OC(=O)c1cc(OC(=O)N2CCCC2)c(F)cc1Cl` showed a logP of 4.22. `COC(=O)c1cc(Sc2ccc(C(F)(F)F)cc2Cl)ccc1[N+](=O)[O-]` showed a logP of 4.76. With `C#CCOc1cc(OC(=O)N2CCC(F)(F)CC2)c(Cl)cc1Cl` the logP was 3.57. With `COC(=O)CON=C(C)c1cc(Oc2ccc(C(F)(F)F)cc2Cl)ccc1[N+](=O)[O-]` the logP was 4.54. `O=C(Oc1ccc(Cl)cc1)N1CCCC1` gave a logP of 3.38. `O=C(Oc1ccccc1)N1CCCC1` showed a logP of 2.73. Work on `C#CCOc1cc(OC(=O)N2CCC(F)(F)C2)c(Cl)cc1Cl` yielded a logP of 3.42. With `C=COC(=O)C(C)Oc1cc(Oc2ccc(C(F)(F)F)cc2Cl)ccc1[N+](=O)[O-]` (stereo unspecified) the logP was 4.54. For `O=C(O)COC(=O)c1cc(Oc2ccc(C(F)(F)F)cc2Cl)ccc1[N+](=O)[O-]`, the logP was 4.27. For `Cc1cccc(Oc2ccc([N+](=O)[O-])cc2)c1`, the logP was 4.4. In the case of `O=[N+]([O-])c1ccc(Oc2ccc(C(F)(F)F)cc2Cl)cc1`, the logP is reported as 4.54. Work on `COC(=O)c1cc(Oc2ccc(C(F)(F)F)cc2Cl)ccc1[N+](=O)[O-]` yielded a logP of 4.26. Work on `Nc1c([N+](=O)[O-])ccc(Oc2ccccc2)c1Cl` yielded a logP of 4.04. For `COC(=O)c1cc(Oc2cc(C(F)(F)F)ccc2Cl)ccc1[N+](=O)[O-]`, the logP was 4.21. With `C#CCOc1cc(OC(=O)N(CC)CC)c(Cl)cc1Cl` the logP was 3.95.
